How the values were obtained:
MV4-11 cells = experiment: WST-1 cell proliferation assay, MV4-11; type: cell-based, human; conditions: Homo sapiens, MV4-11, Example 5 text; read-out: IC50 MV4-11
Protocol: Cell lines were seeded into 96-well plates the afternoon prior to treatment. Approximately 18 hours later, bis and mono-aziridine dimeric naphthoquinone compounds were semi-serially diluted in dimethyl sulfoxide (DMSO) and then growth medium, and added to cells. Plates were incubated for 72 hours prior to addition of WST-1 (Promega®). Plates were read after 4 additional hours of incubation at 37° C. using a Bio-Tek Synergy® HT plate reader (Bio-Tek®). Data were analyzed and graphed using GraphPad Prism® Software (Graph Pad®).
Primary AML cells from patients and cell lines were seeded into 96-well plates the afternoon prior to treatment. Eighteen hours later, amino-dimeric naphthoquinone Compounds 106, 101, and 114 were semi-serially diluted in dimethyl sulfoxide (DMSO) and then growth medium, and added to the cells. In order to quantitate proliferation of metabolically active cells, plates were incubated for 72 hours for cell lines and 48 hours for primary AML cells prior to addition of water-soluble tetrazolium (WST-1) (Clontech®). Plates were read after four additional hours of incubation at 37° C. using a Bio-Tek Synergy® HT plate reader (Bio-Tele®). Data were analyzed and graphed using GraphPad Prism® Software (GraphPad®). IC50 was defined as the concentration that decreases viable cell numbers by 50%. IC50 values were calculated as mean±standard deviation from at least two independent experiments. If availability of primary blasts was limited, the IC50 was obtained from a single experiment.

[1] = tested on: normal hematopoietic bone marrow cells; experiment: WST-1 cell proliferation assay, normal bone marrow cells; type: cell-based; conditions: Homo sapiens
Protocol: Bone marrow aspirate or whole blood samples were received in sodium ethylenediaminetetraacetate (EDTA) tubes, and diluted 1:1 with phosphate-buffered saline (PBS). Cells were isolated from diluted samples by density separation in lymphocyte separation medium (Corning Cellgro®) with centrifugation at 400×g for 30 minutes with no brake. Cells from healthy donor whole blood were isolated in similar manner. N01mal bone marrow mononuclear cells (NBM) were purchased from Lonza®. Viable cell numbers were calculated using trypan blue exclusion. All primary AML cells and cell lines were grown in 37° C. with 5% CO2 atmosphere in Roswell Park Memorial institute (RPMI) 1640 medium (Life Technologies®) supplemented with heat-inactivated 10% (v/v) fetal bovine serum. […]
Primary AML cells from patients and cell lines were seeded into 96-well plates the afternoon prior to treatment. […] In order to quantitate proliferation of metabolically active cells, plates were incubated for 72 hours for cell lines and 48 hours for primary AML cells prior to addition of water-soluble tetrazolium (WST-1) (Clontech®). Plates were read after four additional hours of incubation at 37° C. using a Bio-Tek Synergy® HT plate reader (Bio-Tele®). Data were analyzed and graphed using GraphPad Prism® Software (GraphPad®). […] IC50 values were calculated as mean±standard deviation from at least two independent experiments. […]

THP-1 cells [2] = experiment: Cell survival assay (trypan blue exclusion), THP-1; type: cell-based, human; conditions: 72 hours; at 1, 10 and 100 μM
Protocol: MOLM-.14 and THP-1 cells were seeded in 96-well plates and treated with DMSO, mono- and bis-aziridinyl dimeric naphthoquinone compounds, or dimethylamine dimeric naphthoquinone Compound 114 as previously described. Cells were incubated for 72 hours, and then counted using trypan blue exclusion on the Countess® automated cell counter (Life Technologies®). Cell counts were performed in duplicates, and the averages were graphed using GraphPad Prism® software (GraphPad®).
Cell survival was determined using trypan blue exclusion, in which cells are plated and the following day treated similarly to the proliferation assay. The bis-aziridinyl dimeric naphthoquinone Compound 101 was effective in decreasing cell number at increasing concentrations of compound in MOLM-14 and THP1 cells.

THP-1 cells [3] = experiment: Cellular reactive oxygen species (H2DCFA), THP-1; type: cell-based, human
Protocol: MOLM-14 and THP-1 cells in logarithmic growth phase were centrifuged and resuspended in PBS at one million cells per milliliter (mL) of medium. Cells were preloaded with 2′,7′-dichlorodihydrofluorescein diacetate (H2DCFA, Life Technologies®) at a final concentration of 2 μM and incubated at 37° C. in the dark for 25 minutes. Cells were centrifuged and resuspended at one million per mL in phenol red-free RPMI plus 10% FBS and incubated at 37° C. in the dark for 25 minutes. Treatments were prepared at 2× concentrations of […] in complete phenol red-free RPMI and added to each well to yield 1× concentrations of 20, 10, 2, or 0.5 μM. Cells were incubated in the dark at 37° C. and measurement of ROS was performed with a Bio-tek® Synergy HT plate reader at various time points post treatment.
In order to elucidate the mechanisms by which the bis-aziridinyl naphthoquinone exerts anti-leukemic activity, the amount of reactive oxygen species (ROS) that cells produced upon treatment with Compound 101 was examined. MOLM-14 and THP-1 cells were loaded with the ROS dye H2DCFA and subsequently plated into 96-well plates. Cells were treated with vehicle (negative control), Compound 101 in varying concentrations, or hydrogen peroxide (positive control), and observed over a period of 2-6 hours. The relative fluorescence units (RFU) were read at various time points. […]

[4] = Safety and tolerability in NSG mice; type: in vivo; conditions: female NSG mice; 5, 10 or 15 mg/kg intraperitoneal daily for 5 days, one week observation
Protocol: Considering the significant antineoplastic, activity of Compound 101, the safety and tolerability of this agent was tested in vivo on female NSG nice. Groups of three female NOD.Cg-Prkdc^scid Il2rg^tm1Wjl/SzJ (NSG) mice were tested with 5, 10 or 15 mg/kg of Compound 101 delivered by intraperitoneal injection daily for 5 consecutive days, and the mice monitored for one additional week. […] An asterisk (*) denotes days of dosing.

## O=C1C(C2=C(N3CC3)C(=O)c3ccccc3C2=O)=C(N2CC2)C(=O)c2ccccc21 [Compound 101, 3,3′-di(aziridin-1-yl)-[2,2′-binaphthalene]-1,1 4,4′-tetrone]
MV4-11 cells
  IC50: 1050 ± 50 nM
[1]
  IC50: 3370 ± 1270 nM
THP-1 cells [2]
  viable cells, THP-1: statistically significant (p<0.05) reduction in viable cells
THP-1 cells [3]
  time to production of ROS, THP-1: ≤ 2 h
THP-1 cells [3]; 0.5-20 μM, 2-6 hours
  ROS production, THP-1: dose-dependent increase in ROS production
[4]
  mean body weight loss: ≤ 10%
  tolerability: tolerated the compound well with no weight loss observed

Source: US11459313B2, “Aziridinyl and amino dimeric naphthoquinone compounds and use for acute myeloid leukemia” (University of Maryland, Baltimore, priority 2016, dated 2022)
